This assay can be described thus: Diet induced metabolic syndrome model in SD rats (body weight, fat tissue weight, serum lipids). It counts as in vivo, Sprague Dawley Rats. The conditions noted are these: end of 8 weeks treatment, Composition-1 250 mg/kg or sibutramine 7 mg/kg (FIG. 6A). The method, then: The extracts of Holoptelea integrifolia were then combined with other herbal extracts and tested for their efficacy. […] The Metabolic syndrome was induced in Sprague Dawley Rats by feeding the rats high fat and high cholesterol diet containing roasted bengal gram, sucrose, milk powder, mineral salt mixture, yeast, butter, groundnut oil and cholesterol for 8 weeks. Following 8 weeks induction phase, the animals were treated daily either with 250 mg/kg body weight of composition-1 or 7 mg/kg body weight of sibutramine in 10 mL of 0.5% CMC for further 8 weeks. The control group of animals were received only the vehicle (10 mL of 0.5% CMC) during this period.
Animals were acclimatized for 7 days prior to study initiation. […]
Following 8 weeks induction phase, the animals were treated orally with 250 mg/kg body weight of Composition-1 or 7 mg/kg body weight of sibutramine in 10 mL of 0.5% CMC for further 8 weeks. […] Body weight of individual animal was recorded weekly in the entire duration of the study. […]
Various biochemical parameters including lipid profile were tested using biochemistry reagents supplied by Human, Germany, in an automated clinical chemistry analyzer HumaStar300, Make: Human, Germany. Mean values of the biochemical parameters estimated before induction, after induction/before treatment and after treatment were measured and compared.

Take `CC(C)CC(N(C)C)C1(c2ccc(Cl)cc2)CCC1` (stereo not shown) [Sibutramine]: the serum cholesterol levels entry is reported as “statistically significant reduction”.

These data come from patent US9345732B2, “Agents derived from Holoptelea integrifolia and their compositions for the control of metabolic syndrome and associated diseases” (Laila Nutraceuticals, priority 2009, dated 2016).
